Data set [1] in a line: Aqueous solubility at room temperature. In kind it is physicochemical. The note with it: thermodynamic from solid. From the text:
It may be preferred that at least 0.1% solubility is needed for an eye drop, even for a suspension formulation. Completely water-insoluble compounds may not be effective. Esters that are soluble in water (>0.1% weight by volume) are preferred. Esters with less than 0.1% solubility may be used in the form of suspensions or ointments or other formulations. […]

A short description of data set [2]: Drug penetration of organ cultured rat lenses (ESR). In kind it is in vitro ADME, Sprague-Dawley rats. The conditions noted are these: for Concentration of tempol-H in lens water: Sprague-Dawley, rat, 4 mM. How it is done: Method: Rat lenses were cultured as follows: Rat lenses were obtained from Sprague-Dawley rats. The lenses were incubated in 24-well cluster dishes in modified TC-199 medium and were placed in a 37° C. incubator with a 95% air/5% CO2 atmosphere. The lenses were incubated in 2 ml of culture medium, which was adjusted to 300 milliosmoles (mOsm). […] In one experiment, lenses were incubated for 4 hours and dissected into epithelial, cortical and nuclear sections before analysis.

Data set [3] can be described thus: Pharmacokinetics and ocular tissue distribution of total radioactivity after single topical dose. It is filed as in vivo, New Zealand White (Harlan) rabbits. How it is done:
Pharmacokinetics, Ocular Tissue Distribution, and Urinary Excretion of Total Radioactivity Following Single Topical Dose Administration of Compound 1 in Rabbits. The pharmacokinetics, ocular tissue distribution and urinary excretion of total radioactivity following a single topical dose administration of the tritiated hydrochloride of Compound 1 in rabbits was evaluated. Eighteen male New Zealand White (Harlan) rabbits, age 3-6 months, weight 2.1 to 3.0 kg were utilized.
Experimental Design: The experimental design was a randomized, single-treatment study in one group of rabbits administered a single topical application of [^3H]Compound 1-HCl into both eyes. The group consisted of 6 subgroups of 3 animals. At six specified times (0.5, 1, 2, 4, 8 and 24 hours) post-dose, three animals per subgroup were euthanized and terminal samples collected. Animals designated to the 24 hour post-dose subgroup were placed in metabolism cages and urine was collected from 0-12 and 12-24 hours post-dose. Terminal blood was collected by cardiac puncture technique. From each eye, the following ocular tissues were harvested: aqueous humor; vitreous humor; lens; and cornea. Total radioactivity was determined in all samples.
Animals received a single topical ocular dose in each eye, right (OD) followed by left (OS). While slightly pulling away the lower eyelid from the globe, the dose was accurately pipetted onto the cornea and allowed to collect in the lower conjunctival sac. The eyelids were gently held shut for 1 minute after drug instillation and then carefully released.
Data analysis and statistical evaluation: Counts per minute for all assayed samples were converted to disintegrations per minute (DPM) using a Beckman LS6000 counter. Following appropriate background subtraction, DPM values were converted to concentrations (DPM per ml or g). Average DPM per ml or g values were calculated. Mean concentration values of ^3H radioactivity were calculated and converted to equivalents per ml or g based on the measured specific activity and nominal concentration of the administered test article formulation as determined by oxidation. Concentrations of total radioactivity in blood and plasma, amount (% of dose) and concentration in ocular tissue and urine samples were determined. Elimination kinetics including blood, plasma, and tissue half-lives were calculated. Urinary excretion data were also tabulated. Statistical evaluation consisted of descriptive statistical analysis. Pharmacokinetics of radioactivity were evaluated by model independent analyses pending suitability of sample assay results. Non-truncated numerical values were used in the calculations.

Data set [4] in a line: Identification of metabolites of Compound 1 in rabbit aqueous humor (GC/MS). It is filed as in vivo. The conditions noted are these: GC/MS of rabbit aqueous humor after topical dosing. How it is done: Aqueous humor samples, from the in vivo rabbit study described in Example 16 were identified by GC/MS for the presence of compound 1 and its metabolites, tempol-H and carboxylic acid (R1COOH), formed by hydrolysis of compound 1 by ocular esterases. Both the metabolites were observed but not Compound 1.
A sample of aqueous humor was freeze dried in a 10 mL amber colored glass vial containing a tiny magnetic bar. To this was added 1 mL of methylene chloride and the solution was stirred for two minutes and allowed to stand for five minutes. A 3 μL aliquot of the methylene chloride layer was injected into the GC column. The cyclopropanecarboxylic acid was detected by a mass spectrometer detector at 13.02 (retention time) with m/z=85 (GC model […] series II (both made by HP)). Agilent DB-5 column 25 m length, 0.2 mm diameter was used. Carrier gas He at 22 cm/sec. Inlet temperature was 250° C., detector 280° C. For every injection, the temperature was held at 35° C. for 5 minutes, then was increased to 240° C. at 10° C./min, and was held at 240° C. for 3 minutes. Splitless injection was used.

Data set [5] has as its system rabbit eyes. As to the kind of experiment: Tolerance in vivo in rabbit eyes. Also noted: species or system rabbits. How it is done:
Eyedrops containing 3.5% compound 1 were administered six times, at 1-hour intervals, to each eye of two conscious rabbits.
It was previously established that dosing rabbits with a 3% solution of Compound 1, 4 times daily, for one week caused no toxicity.

The nature of data set [6]: Measured octanol/water partition coefficient. It is filed as physicochemical. From the text:
Esters are selected for these tests based on their calculated or measured octanol/water partition coefficient (P). Hydrophilic compounds such as tempol-H cannot penetrate the lipophilic epithelial layer of the cornea. Partition coefficients of tempol-H and esters that penetrate are as follows: […]

Data set [7] has as its system ARPE-19 cells that have accumulated A2E. Put plainly: Protection against A2E-mediated blue light damage in RPE cells. The note with it: 24 hours pre-treatment; 430+/−20 nm light; MTT and two-color fluorescence assays; FIG. 3 and FIG. 4. It is filed as cell-based. How it is done:
Materials and Methods: ARPE-19 cells that have accumulated A2E in culture were exposed to 430+/−20 nm light delivered from a halogen source. This wavelength of light is relevant since (i) the excitation maximum of A2E is approximately 430 nm, and (ii) light of this wavelength reaches the RPE in vivo while light of wavelengths […] by the cornea and lens. Cell death in blue light-illuminated A2E-laden RPE was compared with and without pre-treatment (24 hours) with tempol-H. The loss of cell viability was quantified by: • 1. A calorimetric microtiter assay based on ability of healthy metabolically active cells to cleave the yellow tetrazolium salt MTT to purple formazan crystals. Cell viability was assessed 24 hours after blue light illumination. Triplicate wells were assayed in each of 2 experiments. • 2. Two-color fluorescence assay in which the nuclei of all dead cells appear red due to staining by a membrane-impermeant dye (Dead Red nuclei acid stain, Molecular Probes) with the nuclei of all cells stained blue with DAPI. Cell viability was assessed 8 hours after blue light illumination. Replicates were assayed by counting cells within 5 microscopic fields within the area of illumination in each well and 3 wells were assayed per experiment. Data are based on of 3 experiments.

Data set [8] can be described thus: Absorption across the cornea: aqueous humor tempol-H after topical eye drops (ESR). In kind it is in vivo, New Zealand White rabbits. The conditions noted are these: all time points (30, 60, 120 minutes) after topical 3.5% solution. How it is done:
Groups of six New Zealand White rabbits were used in the study to evaluate the absorption of tempol-H and compound 1. The test compounds were prepared in sterile saline solutions at a concentration of 3.5% weight by volume. The animals were held in restraining boxes during instillation of eye drops, 50 μL in each eye, using a micropipette. After dosing, the eye was gently held closed for 60 seconds. The rabbits were dosed twice daily for 4 consecutive days. On the fifth day, rabbits were dosed once and then euthanized at 30 minutes post dose (2 rabbits), 60 minutes post-dose (2 rabbits) and at 120 minutes post-dose (2 rabbits). Immediately after euthanization, aqueous humor was collected from each rabbit. The aqueous concentration of tempol-H in each sample was measured using the electron spin resonance (ESR) method.

Where [9] appears, read: 30 minutes post-dose, single drop (40 ul) of 3% solution, total radioactivity.

“Also recorded” adds a separate entry of the source. Counter-ions that a name gives are not always drawn.

Take `CC1(C)CC(OC(=O)C2CCOC2)CC(C)(C)N1O.Cl` (stereo not drawn) [Example 16, 1-hydroxy-4-(3′-tetrahydrofuran)carbonyloxy-2,2,6,6-tetramethylpiperidine Hydrochloride]: the solubility in data set [1] (water, room temperature) is above 35 mg/mL.
On the same count and under the same terms, the figure for `CC(C)(CO)C(=O)OC1CC(C)(C)N(O)C(C)(C)C1` [Example 10, 1-hydroxy-4-(3′-hydroxy-2′,2′-dimethyl)propanecarbonyloxy-2,2,6,6-tetramethylpiperidine Hydrochloride] is above 35 mg/mL.
Consider `CC1(C(=O)OC2CC(C)(C)N(O)C(C)(C)C2)CC1.Cl` [Example 12, 1-hydroxy-4-(1-methyl-cyclopropane)carbonyloxy-2,2,6,6-tetramethylpiperidine Hydrochloride], for which the melting point is 215 to 220 °C (dec.). Besides, in data set [1] (water, room temperature), the solubility was at least 1 mg/mL.
For the compound `CC1(C)CC(O)CC(C)(C)N1[O]` [tempol], the “Share in the oxidized form in the epithelium” value in data set [2] (4-hour incubation with tempol) is reported as “about 5%”. In addition, the “Oxidized form tempol found in the lens” value in [2] (after incubation with 4.0 mM tempol) is given as at most 5%.
In the case of `CC1(C)CC(OC(=O)C2CC2)CC(C)(C)N1O.Cl` [Compound 1, 1-hydroxy-4-cyclopropanecarbonyloxy-2,2,6,6-tetramethylpiperidine Hydrochloride], the “Peak concentration, Blood” value in [3] (setting [9]) came to 240 nanogram equivalents/gram. In data set [3] (setting [9]), the “Peak concentration, Plasma” value amounted to 360 nanogram equivalents/gram. Besides, the “Peak tissue concentration, Aqueous” value in [3] (setting [9]) worked out at 5930 nanogram equivalents/gram. Moreover, the “Peak tissue concentration, Cornea” value in [3] (setting [9]) came out at 13090 nanogram equivalents/gram. For the same compound, the “Peak tissue concentration, Lens” value in data set [3] (setting [9]) stood at 310 nanogram equivalents/gram. In data set [3] (setting [9]), the “Peak tissue concentration, Vitreous” value is recorded as 150 nanogram equivalents/gram. Besides, the “Radioactivity in tissues at 24 hours post-dose” value in [3] (all tissues, FIG. 2) is listed as “still measurable in all tissues”. Moreover, the solubility in data set [1] (0.01 M acetate buffer, pH 4.8, aqueous buffer, 0.01 M Acetate buffer at pH 4.8, room temperature) was 68.6 mg/mL; in [1] (0.01 M citrate buffer, pH 4.8, aqueous buffer, 0.01 M Citrate buffer at pH 4.8, room temperature), 71.1 mg/mL; in data set [1] (0.9% sodium chloride, saline or isotonic, room temperature), 40.5 mg/mL; in [1] (water with 1% w/v glycerin, water, Water + 1% w/v glycerin, room temperature), 62.2 mg/mL; in [1] (water with 1% w/v propylene glycol, water, Water + 1% w/v propylene glycol, room temperature), 63.8 mg/mL; in data set [1] (water, room temperature), 74.9 mg/mL. Besides, in data set [4], the “Conversion to metabolites (tempol-H and carboxylic acid) in aqueous humor” value is listed as “completely converted to its metabolites”. In addition, in data set [5] (3% solution, 4 times daily, for one week), the Toxicity entry was “no toxicity”. Also, in data set [5] (eyedrops 3.5%, six times at 1-hour intervals, each eye of two conscious rabbits), the Ocular tolerance entry is “well tolerated and no adverse findings were noted”.
`CCOCC(C)(C)C(=O)OC1CC(C)(C)N(O)C(C)(C)C1.Cl`: the melting point is 140 to 142 °C (dec.).
In the case of `CC1(C)CC(O)CC(C)(C)N1O` [Tempol-H, 1,4-dihydroxy-2,2,6,6-tetramethylpiperidine], in data set [6], the “P (measured)” value was found to be 0.5. Besides, the “Protection against the death of blue light-illuminated A2E-laden RPE” value in [7] was “dose-dependent protection; also recorded: protect”. Moreover, in [8], the “Aqueous humor levels of tempol-H” value is “below detectable limits”. For the same compound, the “Concentration of tempol-H in lens water” value in data set [2] (1 h) amounted to 400 µM; in data set [2] (2 h), 800 µM; in data set [2] (4 h), 1000 µM.
Compound `CC1(C)CC(OC(=O)c2ccco2)CC(C)(C)N1O.Cl` showed a melting point of 209.4 to 210.4 °C.

Broadly, the solubility is the concentration that dissolves in the medium under given conditions. One may read the melting point as the temperature of the solid-liquid transition.

The record behind these values is US7825134B2, “Amelioration of cataracts, macular degeneration and other ophthalmic diseases” (Othera Holding, Inc., priority 2003, dated 2010).
